From PubChem BioAssay AID1745844 (Carcinogenic Potency Database (CPDB), 2022)
Calls of active or inactive are those of the source. No rule for the calls is given here.

Test system: rodent lifetime carcinogenesis bioassay, tumor incidence TD50
Assay: chronic cancer bioassays in animals – CPDB, compiled studies (AID 1745844)

## CCN(C)N=O
rat, strain Fischer 344, females, in drinking water, site: all sites, lesion: one or several types, types not named, dosed 30 weeks, study length 115 weeks
  TD50: 0.0386 mg/kg/day
rat, strain Fischer 344, males, by gavage, site: liver, lesion: hemangiosarcoma, dosed 30 weeks, study length 55 weeks
  TD50: 0.12 mg/kg/day
rat, strain Fischer 344, males, by gavage, site: liver, lesion: hepatocellular tumor, benign, dosed 30 weeks, study length 55 weeks
  TD50: 0.0503 mg/kg/day
rat, strain Fischer 344, males, by gavage, site: liver, lesion: several types, types named in the paper, dosed 30 weeks, study length 55 weeks
  TD50: 0.0503 mg/kg/day
rat, strain Fischer 344, males, by gavage, site: lung, lesion: alveolar/bronchiolar adenoma, dosed 30 weeks, study length 55 weeks
  TD50: 0.242 mg/kg/day
rat, strain Fischer 344, males, by gavage, site: nasal mucosa, lesion: one or several types, types not named, dosed 30 weeks, study length 55 weeks
  TD50: 0.201 mg/kg/day

## CNC(=O)ON=CC(C)(C)SC
mouse, strain B6C3F1, females, in feed, site: any site (literature study), lesion: several types, types named in the paper, dosed 103 weeks, study length 103 weeks
  carcinogen call: negative (inactive)
mouse, strain B6C3F1, females, in feed, site: liver, lesion: hepatocellular adenoma + hepatocellular carcinoma + neoplastic nodule, dosed 103 weeks, study length 103 weeks
  TD50: 52.7 mg/kg/day
mouse, strain B6C3F1, males, in feed, site: any site (literature study), lesion: several types, types named in the paper, dosed 103 weeks, study length 103 weeks
  TD50: 1.74 mg/kg/day (inactive)
mouse, strain B6C3F1, males, in feed, site: liver, lesion: hepatocellular adenoma + hepatocellular carcinoma + neoplastic nodule, dosed 103 weeks, study length 103 weeks
  TD50: 2.83 mg/kg/day
mouse, strain B6C3F1, males, in feed, site: lung, lesion: alveolar/bronchiolar adenoma + alveolar/bronchiolar carcinoma, dosed 103 weeks, study length 103 weeks
  TD50: 14.8 mg/kg/day
rat, strain Fischer 344, females, in feed, site: any site (literature study), lesion: several types, types named in the paper, dosed 103 weeks, study length 105 weeks
  carcinogen call: negative (inactive)
rat, strain Fischer 344, males, in feed, site: any site (literature study), lesion: several types, types named in the paper, dosed 103 weeks, study length 105 weeks
  TD50: 10.4 mg/kg/day (inactive)
rat, strain Fischer 344, males, in feed, site: liver, lesion: hepatocellular adenoma + hepatocellular carcinoma + neoplastic nodule, dosed 103 weeks, study length 105 weeks
  TD50: 1.33 mg/kg/day

## CN(C)N=Nc1nc[nH]c1C(N)=O
mouse, strain Swiss, females, i.p., site: all sites, lesion: lymphosarcoma, dosed 26 weeks, study length 61 weeks
  TD50: 8 mg/kg/day
mouse, strain Swiss, females, i.p., site: any site (literature study), lesion: benign tumor, dosed 26 weeks, study length 61 weeks
  TD50: 7.03 mg/kg/day
mouse, strain Swiss, females, i.p., site: any site (literature study), lesion: malignant tumor, dosed 26 weeks, study length 61 weeks
  TD50: 0.807 mg/kg/day
mouse, strain Swiss, females, i.p., site: lung, lesion: several types, types named in the paper, dosed 26 weeks, study length 61 weeks
  TD50: 0.595 mg/kg/day
mouse, strain Swiss, females, i.p., site: spleen, lesion: hemangioendothelioma, dosed 26 weeks, study length 61 weeks
  TD50: 14.5 mg/kg/day
mouse, strain Swiss, females, i.p., site: uterus, lesion: adenocarcinoma, dosed 26 weeks, study length 61 weeks
  TD50: 3.2 mg/kg/day
mouse, strain Swiss, males, i.p., site: all sites, lesion: lymphatic leukemia, dosed 26 weeks, study length 78 weeks
  TD50: 13 mg/kg/day
mouse, strain Swiss, males, i.p., site: all sites, lesion: lymphosarcoma, dosed 26 weeks, study length 78 weeks
  TD50: 16.1 mg/kg/day
mouse, strain Swiss, males, i.p., site: any site (literature study), lesion: benign tumor, dosed 26 weeks, study length 78 weeks
  TD50: 10.6 mg/kg/day
mouse, strain Swiss, males, i.p., site: any site (literature study), lesion: malignant tumor, dosed 26 weeks, study length 78 weeks
  TD50: 1.54 mg/kg/day
mouse, strain Swiss, males, i.p., site: any site (literature study), lesion: several types, types named in the paper, dosed 26 weeks, study length 78 weeks
  TD50: 0.813 mg/kg/day
mouse, strain Swiss, males, i.p., site: liver, lesion: several types, types named in the paper, dosed 26 weeks, study length 78 weeks
  TD50: 98.8 mg/kg/day
mouse, strain Swiss, males, i.p., site: lung, lesion: several types, types named in the paper, dosed 26 weeks, study length 78 weeks
  TD50: 2.57 mg/kg/day
mouse, strain Swiss, males, i.p., site: spleen, lesion: several types, types named in the paper, dosed 26 weeks, study length 78 weeks
  TD50: 5.17 mg/kg/day
rat, strain Sprague-Dawley, females, in feed, site: mammary gland, lesion: adenofibroma, dosed 46 weeks, study length 60 weeks
  TD50: 0.71 mg/kg/day
rat, strain Sprague-Dawley, females, in feed, site: thymus gland, lesion: lymphosarcoma, dosed 46 weeks, study length 60 weeks
  TD50: 4.21 mg/kg/day
rat, strain Sprague-Dawley, females, in feed, site: uterus, lesion: leiomyosarcoma, dosed 46 weeks, study length 60 weeks
  TD50: 6.55 mg/kg/day

## C=C(C)C(=O)Nc1ccc(Cl)c(Cl)c1
mouse, strain B6AKF1, females, oral dosing, site: any site (literature study), lesion: several types, types named in the paper, dosed 76 weeks, study length 76 weeks
  carcinogen call: negative (inactive)
mouse, strain B6AKF1, females, oral dosing, site: liver, lesion: hepatoma, dosed 76 weeks, study length 76 weeks
  carcinogen call: negative (inactive)
mouse, strain B6AKF1, females, oral dosing, site: lung, lesion: adenoma, dosed 76 weeks, study length 76 weeks
  carcinogen call: negative (inactive)
mouse, strain B6AKF1, males, oral dosing, site: any site (literature study), lesion: several types, types named in the paper, dosed 76 weeks, study length 76 weeks
  TD50: 49.1 mg/kg/day (inactive)
mouse, strain B6AKF1, males, oral dosing, site: liver, lesion: hepatoma, dosed 76 weeks, study length 76 weeks
  TD50: 27.1 mg/kg/day (inactive)
mouse, strain B6AKF1, males, oral dosing, site: lung, lesion: adenoma, dosed 76 weeks, study length 76 weeks
  carcinogen call: negative (inactive)
mouse, strain B6C3F1, females, oral dosing, site: any site (literature study), lesion: one or several types, types not named, dosed 76 weeks, study length 76 weeks
  carcinogen call: negative (inactive)
mouse, strain B6C3F1, females, oral dosing, site: liver, lesion: hepatoma, dosed 76 weeks, study length 76 weeks
  carcinogen call: negative (inactive)
mouse, strain B6C3F1, females, oral dosing, site: lung, lesion: several types, types named in the paper, dosed 76 weeks, study length 76 weeks
  carcinogen call: negative (inactive)
mouse, strain B6C3F1, males, oral dosing, site: any site (literature study), lesion: several types, types named in the paper, dosed 76 weeks, study length 76 weeks
  TD50: 5.39 mg/kg/day (inactive)
mouse, strain B6C3F1, males, oral dosing, site: liver, lesion: hepatoma, dosed 76 weeks, study length 76 weeks
  TD50: 15.2 mg/kg/day (inactive)
mouse, strain B6C3F1, males, oral dosing, site: lung, lesion: adenoma, dosed 76 weeks, study length 76 weeks
  TD50: 23.7 mg/kg/day (inactive)

## CN(C)c1ccc(Cc2ccc(N(C)C)cc2)cc1
mouse, strain B6C3F1, females, in feed, site: any site (literature study), lesion: several types, types named in the paper, dosed 78 weeks, study length 91 weeks
  TD50: 280 mg/kg/day
mouse, strain B6C3F1, females, in feed, site: liver, lesion: hepatocellular adenoma + hepatocellular carcinoma + neoplastic nodule, dosed 78 weeks, study length 91 weeks
  TD50: 207 mg/kg/day
mouse, strain B6C3F1, females, in feed, site: liver, lesion: hepatocellular adenoma + hepatocellular carcinoma, dosed 78 weeks, study length 91 weeks
  TD50: 207 mg/kg/day
mouse, strain B6C3F1, females, in feed, site: lung, lesion: alveolar/bronchiolar adenoma + alveolar/bronchiolar carcinoma, dosed 78 weeks, study length 91 weeks
  TD50: 1080 mg/kg/day
mouse, strain B6C3F1, males, in feed, site: any site (literature study), lesion: several types, types named in the paper, dosed 78 weeks, study length 91 weeks
  TD50: 367 mg/kg/day (inactive)
mouse, strain B6C3F1, males, in feed, site: liver, lesion: hepatocellular adenoma + hepatocellular carcinoma + neoplastic nodule, dosed 78 weeks, study length 91 weeks
  TD50: 558 mg/kg/day
mouse, strain B6C3F1, males, in feed, site: lung, lesion: alveolar/bronchiolar adenoma + alveolar/bronchiolar carcinoma, dosed 78 weeks, study length 91 weeks
  TD50: 1410 mg/kg/day
rat, strain Fischer 344, females, in feed, site: any site (literature study), lesion: several types, types named in the paper, dosed 59 weeks, study length 104 weeks
  TD50: 41.7 mg/kg/day
rat, strain Fischer 344, females, in feed, site: liver, lesion: hepatocellular adenoma + hepatocellular carcinoma + neoplastic nodule, dosed 59 weeks, study length 104 weeks
  TD50: 203 mg/kg/day
rat, strain Fischer 344, females, in feed, site: liver, lesion: neoplastic nodule, dosed 59 weeks, study length 104 weeks
  TD50: 203 mg/kg/day
rat, strain Fischer 344, females, in feed, site: thyroid gland, lesion: follicular-cell adenoma + follicular-cell carcinoma, dosed 59 weeks, study length 104 weeks
  TD50: 16.4 mg/kg/day
rat, strain Fischer 344, females, in feed, site: thyroid gland, lesion: follicular-cell carcinoma, dosed 59 weeks, study length 104 weeks
  TD50: 27.7 mg/kg/day
rat, strain Fischer 344, males, in feed, site: any site (literature study), lesion: several types, types named in the paper, dosed 59 weeks, study length 104 weeks
  TD50: 42.9 mg/kg/day
rat, strain Fischer 344, males, in feed, site: thyroid gland, lesion: follicular-cell adenoma + follicular-cell carcinoma, dosed 59 weeks, study length 104 weeks
  TD50: 16.5 mg/kg/day
rat, strain Fischer 344, males, in feed, site: thyroid gland, lesion: follicular-cell carcinoma, dosed 59 weeks, study length 104 weeks
  TD50: 28.6 mg/kg/day

## NC(=O)N(CCF)N=O
rat, strain Fischer 344, males, by gavage, site: forestomach, lesion: one or several types, types not named, dosed 40 weeks, study length 104 weeks
  TD50: 0.125 mg/kg/day
rat, strain Fischer 344, males, by gavage, site: lung, lesion: several types, types named in the paper, dosed 40 weeks, study length 104 weeks
  TD50: 0.279 mg/kg/day

## COC(=O)C(C)(C)Oc1ccc(-c2ccc(Cl)cc2)cc1
mouse, strain AP Alderly Park, females, in feed, site: liver, lesion: hepatocellular adenoma, dosed 78 weeks, study length 78 weeks
  TD50: 2.27 mg/kg/day
mouse, strain AP Alderly Park, females, in feed, site: liver, lesion: hepatocellular carcinoma, dosed 78 weeks, study length 78 weeks
  TD50: 8.3 mg/kg/day
mouse, strain AP Alderly Park, females, in feed, site: liver, lesion: several types, types named in the paper, dosed 52 weeks, study length 78 weeks
  TD50: 25 mg/kg/day
mouse, strain AP Alderly Park, females, several routes, site: liver, lesion: hepatocellular adenoma, dosed 78 weeks, study length 78 weeks
  TD50: 48.5 mg/kg/day
mouse, strain AP Alderly Park, females, several routes, site: liver, lesion: hepatocellular carcinoma, dosed 78 weeks, study length 78 weeks
  TD50: 13.4 mg/kg/day
mouse, strain AP Alderly Park, females, several routes, site: lung, lesion: adenoma, dosed 78 weeks, study length 78 weeks
  TD50: 890 mg/kg/day
mouse, strain AP Alderly Park, males, in feed, site: liver, lesion: hepatocellular adenoma, dosed 78 weeks, study length 78 weeks
  TD50: 2.75 mg/kg/day
mouse, strain AP Alderly Park, males, in feed, site: liver, lesion: hepatocellular carcinoma, dosed 78 weeks, study length 78 weeks
  TD50: 0.858 mg/kg/day
mouse, strain AP Alderly Park, males, in feed, site: liver, lesion: several types, types named in the paper, dosed 26 weeks, study length 78 weeks
  TD50: 2.08 mg/kg/day
mouse, strain AP Alderly Park, males, in feed, site: liver, lesion: several types, types named in the paper, dosed 52 weeks, study length 78 weeks
  TD50: 5.94 mg/kg/day
mouse, strain AP Alderly Park, males, several routes, site: liver, lesion: hepatocellular carcinoma, dosed 78 weeks, study length 78 weeks
  TD50: 16.8 mg/kg/day
rat, strain Alpk:APfSD, females, in feed, site: liver, lesion: hepatocellular adenoma, dosed 104 weeks, study length 104 weeks
  TD50: 460 mg/kg/day
rat, strain Alpk:APfSD, females, in feed, site: liver, lesion: hepatocellular carcinoma, dosed 104 weeks, study length 104 weeks
  TD50: 5.88 mg/kg/day
rat, strain Alpk:APfSD, males, in feed, site: liver, lesion: hepatocellular adenoma, dosed 104 weeks, study length 104 weeks
  TD50: 17.4 mg/kg/day
rat, strain Alpk:APfSD, males, in feed, site: liver, lesion: hepatocellular carcinoma, dosed 104 weeks, study length 104 weeks
  TD50: 2.87 mg/kg/day
rat, strain Alpk:APfSD, males, in feed, site: pancreas, exocrine, lesion: adenoma, dosed 52 weeks, study length 104 weeks
  TD50: 1.44 mg/kg/day
rat, strain Alpk:APfSD, males, in feed, site: pancreas, exocrine, lesion: adenoma, dosed 104 weeks, study length 104 weeks
  TD50: 18.5 mg/kg/day
rat, strain Alpk:APfSD, males, in feed, site: testis, lesion: Leydig-cell adenoma, dosed 104 weeks, study length 104 weeks
  TD50: 2.93 mg/kg/day
rat, strain Fischer 344, males, in feed, site: liver, lesion: hepatocellular carcinoma, dosed 75 weeks, study length 75 weeks
  carcinogen call: positive
